From PMC12102023 (Saudi Pharmaceutical Journal : SPJ, 2025) come the findings set out here.

The subject of experiment [1] is HCT116 (colorectal carcinoma). The experiment in a line: MTT antiproliferation assay, HCT116. Type of experiment: cell-based. The note with it: Homo sapiens, HCT-116, read-out: IC50 (µM) HCT- 116. (In general: Formazan colour is commonly taken as a measure of viable cells.)
The next experiment has as its target CDK9 (Homo sapiens, UniProt P50750). The experiment in a line: biochemical.
In experiment [2] the test system is HepG2 (hepatocellular carcinoma). The experiment in a line: MTT antiproliferation assay, HepG2. It counts as cell-based, human.
In experiment [3] the test system is HeLa (cervical epithelioid carcinoma). The experiment in a line: MTT antiproliferation assay, HeLa. Type of experiment: cell-based, human.
The target of another experiment is CDK12 (Homo sapiens, UniProt Q9NYV4). The experiment in a line: CDK12 inhibition assay. It counts as biochemical.
Experiment [4] concerns MCF7 (mammary gland breast cancer). The experiment in a line: MTT antiproliferation assay, MCF7. It counts as cell-based. The conditions noted are these: Homo sapiens, MCF7, read-out: IC50 (µM) MCF- 7.
The subject of experiment [5] is WI- 38 (embryonic lung fibroblasts). The experiment in a line: MTT assay, WI-38 fibroblasts. Type of experiment: cell-based. The conditions noted are these: Homo sapiens, WI-38, read-out: IC50 (µM) WI- 38.
[6] abbreviates: Homo sapiens, HepG2, read-out: IC50 (µM) HePG- 2, MTT assay, HepG2 cells.
[7] abbreviates: Homo sapiens, HeLa, read-out: IC50 (µM) Hela, MTT assay, HeLa cells.
[8] abbreviates: read-out: IC50 (µM) Hela, MTT assay, HeLa cells.

Read-outs that look alike come from different tables or passages of the source.

Chain of CDK12 (Q9NYV4 whole entry): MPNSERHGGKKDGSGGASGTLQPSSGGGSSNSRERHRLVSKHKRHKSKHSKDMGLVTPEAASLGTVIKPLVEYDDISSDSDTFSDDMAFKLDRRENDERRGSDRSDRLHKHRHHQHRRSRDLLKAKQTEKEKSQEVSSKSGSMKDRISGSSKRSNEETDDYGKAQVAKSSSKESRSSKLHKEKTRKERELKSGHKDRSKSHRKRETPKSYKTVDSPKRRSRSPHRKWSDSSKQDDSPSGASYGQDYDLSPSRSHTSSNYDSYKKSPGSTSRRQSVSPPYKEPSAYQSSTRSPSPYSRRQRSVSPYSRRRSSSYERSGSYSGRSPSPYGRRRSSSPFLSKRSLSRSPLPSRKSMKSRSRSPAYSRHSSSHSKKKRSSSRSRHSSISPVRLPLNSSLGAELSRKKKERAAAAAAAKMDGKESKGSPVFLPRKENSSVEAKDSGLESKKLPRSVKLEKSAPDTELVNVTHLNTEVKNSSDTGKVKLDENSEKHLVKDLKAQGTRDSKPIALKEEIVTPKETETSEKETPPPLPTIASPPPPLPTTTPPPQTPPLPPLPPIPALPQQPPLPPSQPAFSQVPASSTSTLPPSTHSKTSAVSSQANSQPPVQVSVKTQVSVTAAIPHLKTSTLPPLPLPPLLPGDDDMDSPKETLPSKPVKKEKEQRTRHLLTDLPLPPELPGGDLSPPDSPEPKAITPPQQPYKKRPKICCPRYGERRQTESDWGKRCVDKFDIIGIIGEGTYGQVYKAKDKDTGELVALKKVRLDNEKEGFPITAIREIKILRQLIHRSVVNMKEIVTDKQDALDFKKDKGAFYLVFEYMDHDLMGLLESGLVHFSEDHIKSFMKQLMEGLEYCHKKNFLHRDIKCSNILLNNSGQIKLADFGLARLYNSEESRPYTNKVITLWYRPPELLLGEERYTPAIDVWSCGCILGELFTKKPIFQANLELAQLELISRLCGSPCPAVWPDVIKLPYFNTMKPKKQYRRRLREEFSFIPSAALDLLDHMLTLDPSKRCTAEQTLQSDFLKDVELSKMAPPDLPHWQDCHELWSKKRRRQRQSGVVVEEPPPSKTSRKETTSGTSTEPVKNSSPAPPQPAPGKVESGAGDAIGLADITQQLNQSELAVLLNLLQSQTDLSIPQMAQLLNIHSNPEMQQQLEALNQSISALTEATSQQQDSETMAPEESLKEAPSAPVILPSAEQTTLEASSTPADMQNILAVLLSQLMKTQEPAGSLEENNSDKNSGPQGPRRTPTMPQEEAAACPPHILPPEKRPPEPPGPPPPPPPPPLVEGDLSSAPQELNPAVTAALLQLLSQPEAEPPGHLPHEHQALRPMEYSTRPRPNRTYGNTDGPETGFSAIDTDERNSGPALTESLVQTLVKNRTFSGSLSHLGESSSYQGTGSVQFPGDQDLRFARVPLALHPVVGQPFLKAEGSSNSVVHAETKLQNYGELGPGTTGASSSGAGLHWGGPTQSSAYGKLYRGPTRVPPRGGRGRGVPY
Chain of CDK12 (O75909 whole entry partner): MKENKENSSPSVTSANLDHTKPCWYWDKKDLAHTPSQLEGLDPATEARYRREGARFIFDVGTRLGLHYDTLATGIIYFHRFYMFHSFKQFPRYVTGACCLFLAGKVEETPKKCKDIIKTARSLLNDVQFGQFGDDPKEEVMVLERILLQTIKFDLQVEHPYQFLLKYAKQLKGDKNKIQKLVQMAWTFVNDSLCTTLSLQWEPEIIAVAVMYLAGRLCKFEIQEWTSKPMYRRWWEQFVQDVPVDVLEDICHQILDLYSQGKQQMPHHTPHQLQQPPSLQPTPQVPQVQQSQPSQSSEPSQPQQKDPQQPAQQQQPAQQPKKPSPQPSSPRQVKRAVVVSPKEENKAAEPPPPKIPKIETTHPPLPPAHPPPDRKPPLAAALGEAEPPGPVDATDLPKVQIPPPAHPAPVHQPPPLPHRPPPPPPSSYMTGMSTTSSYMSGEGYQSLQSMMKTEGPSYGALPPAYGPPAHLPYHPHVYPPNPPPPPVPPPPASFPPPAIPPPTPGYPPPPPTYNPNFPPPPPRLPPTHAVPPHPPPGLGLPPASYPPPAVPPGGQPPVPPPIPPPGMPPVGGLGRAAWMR
Chain of CDK9 (P50750 whole entry): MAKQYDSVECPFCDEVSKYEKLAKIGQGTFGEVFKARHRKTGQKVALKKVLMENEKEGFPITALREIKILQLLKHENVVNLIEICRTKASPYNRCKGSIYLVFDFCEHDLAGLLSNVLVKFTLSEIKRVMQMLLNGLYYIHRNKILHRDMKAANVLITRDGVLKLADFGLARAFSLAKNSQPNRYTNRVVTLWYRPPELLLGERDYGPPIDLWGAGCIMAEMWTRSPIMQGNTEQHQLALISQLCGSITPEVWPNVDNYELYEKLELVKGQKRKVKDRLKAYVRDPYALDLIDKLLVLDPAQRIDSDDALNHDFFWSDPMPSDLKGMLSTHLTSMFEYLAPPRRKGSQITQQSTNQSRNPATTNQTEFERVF
Chain of CDK9 (O60563 whole entry partner): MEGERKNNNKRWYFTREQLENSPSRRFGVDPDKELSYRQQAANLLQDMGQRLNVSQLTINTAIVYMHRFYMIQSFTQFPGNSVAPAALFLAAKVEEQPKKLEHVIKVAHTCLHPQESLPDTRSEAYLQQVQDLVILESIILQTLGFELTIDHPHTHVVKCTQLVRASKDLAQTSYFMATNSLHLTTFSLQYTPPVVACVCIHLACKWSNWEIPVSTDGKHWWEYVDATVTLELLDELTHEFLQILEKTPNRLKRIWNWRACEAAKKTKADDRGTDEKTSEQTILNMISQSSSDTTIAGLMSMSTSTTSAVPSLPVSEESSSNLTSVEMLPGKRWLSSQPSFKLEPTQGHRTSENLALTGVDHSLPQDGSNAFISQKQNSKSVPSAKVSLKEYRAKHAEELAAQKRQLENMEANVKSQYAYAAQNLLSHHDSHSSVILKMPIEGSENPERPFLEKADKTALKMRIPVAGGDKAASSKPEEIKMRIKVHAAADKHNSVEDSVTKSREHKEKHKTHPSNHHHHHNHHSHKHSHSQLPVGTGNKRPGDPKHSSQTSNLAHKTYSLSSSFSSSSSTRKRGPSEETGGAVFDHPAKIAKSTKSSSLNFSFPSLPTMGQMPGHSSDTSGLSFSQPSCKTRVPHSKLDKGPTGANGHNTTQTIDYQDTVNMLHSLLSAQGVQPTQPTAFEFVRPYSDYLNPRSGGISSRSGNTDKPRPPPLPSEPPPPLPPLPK

Regarding `Cc1nc2ccccc2n1-c1nc(Nc2cccc(S(N)(=O)=O)c2)ncc1C(F)(F)F` [Compound 4 h, 3-((4-(2-methyl-1H-benzo[d]imidazol-1-yl)− 5-(trifluoromethyl)pyrimidin-2-yl)amino)benzenesulfonamide], the IC50 (as a rule, the midpoint of a concentration-inhibition curve) was greater than 50 µM in experiment [1]; 0.05 ± 0.002 µM against CDK9; greater than 50 µM in experiment [2] (setting [6]); greater than 50 µM in experiment [3] (setting [7]); 0.153 ± 0.006 µM at CDK12; greater than 50 µM in experiment [4]. Moreover, the IC50 in experiment [5] is greater than 50 µM.

In the case of `Cc1cnc(Nc2cccc(S(N)(=O)=O)c2)nc1-n1c(C)nc2ccccc21` [Compound 4 g, 3-((5-methyl-4-(2-methyl-1H-benzo[d]imidazol-1-yl)pyrimidin-2-yl)amino)benzenesulfonamide], the IC50 turned out to be 9.34 ± 0.8 µM in experiment [1]; 0.114 ± 0.005 µM against CDK9; 7.59 ± 0.6 µM in experiment [2] (setting [6]); 12.6 µM in experiment [3] (setting [7]); 12.7 ± 0.9 µM in experiment [3] (setting [8]); 0.071 ± 0.003 µM on CDK12. Moreover, the IC50 was 5.08 ± 0.3 µM in experiment [4] and greater than 50 µM in experiment [5].

With `NS(=O)(=O)c1cccc(Nc2ncc(F)c(-n3c(C(F)(F)F)nc4ccccc43)n2)c1` [Compound 4j, 3-((5-fluoro-4-(2-(trifluoromethyl)− 1H-benzo[d]imidazol-1-yl)pyrimidin-2-yl)amino)benzenesulfonamide], the IC50 in experiment [1] stood at 16.8 ± 1.2 µM; at CDK9, 0.055 ± 0.002 µM; in experiment [2] (setting [6]) it was 8.54 ± 0.7 µM; in experiment [3] (setting [7]) it was 19.4 µM; in experiment [3] (setting [8]), 19.2 ± 1.5 µM; at CDK12, 0.104 ± 0.004 µM. The IC50 in experiment [4] is 11.7 ± 0.9 µM; in experiment [5], greater than 50 µM.

With `NS(=O)(=O)c1cccc(Nc2ncc(F)c(-n3c(C4CC4)nc4ccccc43)n2)c1` [Compound 4r, 3-((4-(2-cyclopropyl-1H-benzo[d]imidazol-1-yl)− 5-fluoropyrimidin-2-yl)amino)benzenesulfonamide], the IC50 in experiment [1] was 29.8 ± 1.9 µM; against CDK9, 0.242 ± 0.01 µM; in experiment [2] (setting [6]), 11.4 ± 0.9 µM; in experiment [3] (setting [7]), 26.5 ± 1.8 µM; against CDK12, 0.104 ± 0.001 µM; in experiment [4] it was 16.2 ± 1.4 µM. Also, the IC50 in experiment [5] is greater than 50 µM.

On to `CC(C)c1nc2ccccc2n1-c1nc(Nc2cccc(S(N)(=O)=O)c2)ncc1C(F)(F)F` [Compound 4p, 3-((4-(2-isopropyl-1H-benzo[d]imidazol-1-yl)− 5-(trifluoromethyl)pyrimidin-2-yl)amino)benzenesulfonamide], for which the IC50 is greater than 50 µM in experiment [1]; 0.153 ± 0.007 µM against CDK9; greater than 50 µM in experiment [2] (setting [6]); greater than 50 µM in experiment [3] (setting [7]); 0.664 ± 0.026 µM against CDK12; greater than 50 µM in experiment [4]. Besides, in experiment [5], the IC50 was 45.3 ± 2.7 µM.

For `COc1cccc2c1C(=O)c1c(O)c3c(c(O)c1C2=O)C[C@@](O)(C(=O)CO)C[C@@H]3O[C@H]1C[C@H](N)[C@H](O)[C@H](C)O1` [Doxorubicin, reference compound], the IC50 in experiment [2] (setting [6]) was found to be 4.5 ± 0.2 µM.

With `NS(=O)(=O)c1cccc(Nc2nccc(-n3cnc4ccccc43)n2)c1` [Compound 4a, 3-((4-(1H-benzo[d]imidazol-1-yl)pyrimidin-2-yl)amino)benzenesulfonamide], the IC50 in experiment [1] is greater than 50 µM; against CDK9 it was 0.396 ± 0.017 µM; in experiment [2] (setting [6]), greater than 50 µM; in experiment [3] (setting [7]), greater than 50 µM; against CDK12 it was 0.295 ± 0.011 µM; in experiment [4] it was greater than 50 µM. For the same compound, the IC50 in experiment [5] amounted to 25.4 ± 1.8 µM.

`Cc1cnc(Nc2cccc(S(N)(=O)=O)c2)nc1-n1c(C(C)C)nc2ccccc21` [Compound 4o, 3-((4-(2-isopropyl-1H-benzo[d]imidazol-1-yl)− 5-methylpyrimidin-2-yl)amino)benzenesulfonamide]: the concentration for half-maximal inhibition (IC50) in experiment [1] was greater than 50 µM; at CDK9, 1.05 ± 0.045 µM; in experiment [2] (setting [6]), greater than 50 µM; in experiment [3] (setting [7]), greater than 50 µM; on CDK12, 1.88 ± 0.073 µM; in experiment [4], greater than 50 µM. Besides, in experiment [5], the IC50 was greater than 50 µM.

`NS(=O)(=O)c1cccc(Nc2ncc(F)c(-n3cnc4ccccc43)n2)c1` [Compound 4b, 3-((4-(1H-benzo[d]imidazol-1-yl)− 5-fluoropyrimidin-2-yl)amino)benzenesulfonamide]: the IC50 in experiment [1] turned out to be 24.7 ± 1.7 µM; against CDK9, 1.15 ± 0.05 µM; in experiment [2] (setting [6]), 22.3 ± 1.6 µM; in experiment [3] (setting [7]), 17 ± 1.3 µM; against CDK12, 0.566 ± 0.022 µM; in experiment [4], 14.2 ± 1.2 µM. In addition, the IC50 in experiment [5] turned out to be 46.7 ± 2.6 µM.

On to `Cc1cnc(Nc2cccc(S(N)(=O)=O)c2)nc1-n1cnc2ccccc21` [Compound 4c, 3-((4-(1H-benzo[d]imidazol-1-yl)− 5-methylpyrimidin-2-yl)amino)benzenesulfonamide], for which the IC50 is greater than 50 µM in experiment [1]; 0.041 ± 0.002 µM at CDK9; 44.4 ± 2.5 µM in experiment [2] (setting [6]); 49.8 ± 2.7 µM in experiment [3] (setting [7]); 0.14 ± 0.005 µM against CDK12; greater than 50 µM in experiment [4]. In experiment [5], the IC50 is greater than 50 µM.

`NS(=O)(=O)c1cccc(Nc2ncc(C(F)(F)F)c(-n3cnc4ccccc43)n2)c1` [Compound 4 d, 3-((4-(1H-benzo[d]imidazol-1-yl)− 5-(trifluoromethyl)pyrimidin-2-yl)amino)benzenesulfonamide]: the IC50 in experiment [1] was greater than 50 µM; at CDK9 it was 0.782 ± 0.034 µM; in experiment [2] (setting [6]) it was greater than 50 µM; in experiment [3] (setting [7]), greater than 50 µM; against CDK12, 1.33 ± 0.052 µM; in experiment [4] it was greater than 50 µM. Further, in experiment [5], the concentration for half-maximal inhibition (IC50) is greater than 50 µM.

Take `NS(=O)(=O)c1cccc(Nc2nccc(-n3c(C4CC4)nc4ccccc43)n2)c1` [Compound 4q, 3-((4-(2-cyclopropyl-1H-benzo[d]imidazol-1-yl)pyrimidin-2-yl)amino)benzenesulfonamide]: the concentration for half-maximal inhibition (IC50) was determined as 13.7 ± 1 µM in experiment [1]; 0.057 ± 0.002 µM on CDK9; 5.88 ± 0.4 µM in experiment [2] (setting [6]); 9.71 ± 0.7 µM in experiment [3] (setting [7]); 0.074 ± 0.003 µM at CDK12; 8.19 ± 0.5 µM in experiment [4]. In experiment [5], the IC50 was 31.4 ± 2.1 µM.

On to `NS(=O)(=O)c1cccc(Nc2ncc(C(F)(F)F)c(-n3c(C(F)(F)F)nc4ccccc43)n2)c1` [Compound 4 l, 3-((5-(trifluoromethyl)− 4-(2-(trifluoromethyl)− 1H-benzo[d]imidazol-1-yl)pyrimidin-2-yl)amino)benzenesulfonamide], for which the IC50 in experiment [1] was greater than 50 µM; against CDK9, 1.67 ± 0.072 µM; in experiment [2] (setting [6]), greater than 50 µM; in experiment [3] (setting [7]), greater than 50 µM; against CDK12 it was 0.899 ± 0.035 µM; in experiment [4], greater than 50 µM. Also, in experiment [5], the IC50 was found to be 18.3 ± 1.3 µM.

Consider `Cc1cnc(Nc2cccc(S(N)(=O)=O)c2)nc1-n1c(C(F)(F)F)nc2ccccc21` [Compound 4k, 3-((5-methyl-4-(2-(trifluoromethyl)− 1H-benzo[d]imidazol-1-yl)pyrimidin-2-yl)amino)benzenesulfonamide], for which the 50% inhibitory concentration (IC50) was 48.7 ± 2.7 µM in experiment [1]; 5.47 ± 0.236 µM at CDK9; 34.1 ± 2.1 µM in experiment [2] (setting [6]); 42.8 ± 2.3 µM in experiment [3] (setting [7]); 1.21 ± 0.047 µM on CDK12; 39.8 ± 2.2 µM in experiment [4]. Further, the concentration for half-maximal inhibition (IC50) in experiment [5] is greater than 50 µM.

`Cc1nc2ccccc2n1-c1ccnc(Nc2cccc(S(N)(=O)=O)c2)n1` [Compound 4e, 3-((4-(2-methyl-1H-benzo[d]imidazol-1-yl)pyrimidin-2-yl)amino)benzenesulfonamide]: the IC50 in experiment [1] is greater than 50 µM; against CDK9, 0.409 ± 0.018 µM; in experiment [2] (setting [6]), greater than 50 µM; in experiment [3] (setting [7]) it was greater than 50 µM; at CDK12 it was 0.425 ± 0.017 µM; in experiment [4] it was greater than 50 µM. In addition, the IC50 in experiment [5] amounted to 39 ± 2.3 µM.

For `CC(C)c1nc2ccccc2n1-c1nc(Nc2cccc(S(N)(=O)=O)c2)ncc1F` [Compound 4n, 3-((5-fluoro-4-(2-isopropyl-1H-benzo[d]imidazol-1-yl)pyrimidin-2-yl)amino)benzenesulfonamide], the IC50 turned out to be 43.3 ± 2.5 µM in experiment [1]; 0.392 ± 0.017 µM on CDK9; 19.8 µM in experiment [2] (setting [6]); 19.9 ± 1.4 µM in experiment [2] (read-out: IC50 (µM) HePG- 2, MTT assay, HepG2 cells); 36.4 ± 2.1 µM in experiment [3] (setting [7]); 0.179 ± 0.007 µM against CDK12. In addition, the IC50 stood at 32.4 ± 2 µM in experiment [4] and 76.1 ± 3.9 µM in experiment [5].

As for `NS(=O)(=O)c1cccc(Nc2ncc(C(F)(F)F)c(-n3c(C4CC4)nc4ccccc43)n2)c1` [Compound 4 t, 3-((4-(2-cyclopropyl-1H-benzo[d]imidazol-1-yl)− 5-(trifluoromethyl)pyrimidin-2-yl)amino)benzenesulfonamide], the IC50 in experiment [1] came to 38.8 ± 2.3 µM; at CDK9, 0.121 ± 0.005 µM; in experiment [2] (setting [6]), 29.3 ± 1.9 µM; in experiment [3] (setting [7]), 30.3 ± 1.9 µM; at CDK12, 0.533 ± 0.021 µM; in experiment [4], 27.8 ± 1.8 µM. Besides, the IC50 in experiment [5] was greater than 50 µM.

With `Cc1cnc(Nc2cccc(S(N)(=O)=O)c2)nc1-n1c(C2CC2)nc2ccccc21` [Compound 4 s, 3-((4-(2-cyclopropyl-1H-benzo[d]imidazol-1-yl)− 5-methylpyrimidin-2-yl)amino)benzenesulfonamide], the IC50 is greater than 50 µM in experiment [1]; 0.408 ± 0.018 µM against CDK9; 38.1 ± 2.3 µM in experiment [2] (setting [6]); 47.2 ± 2.5 µM in experiment [3] (setting [7]); 0.189 ± 0.007 µM against CDK12; 45.7 ± 2.4 µM in experiment [4]. In addition, in experiment [5], the IC50 is 28 ± 2 µM.
